Results published in patent US20160199320A1, “Ophthalmic Treatments” (Optosolve Research & Development Limited, priority 2011, published 2016).

Tests used:
[1] = tested on: eye; experiment: ninth example: tramadol eye-drops in blepharitis with reduced tear break-up time; assay type: in vivo, human; settings: eye-drops containing 1.0% w/v tramadol
Text: In a ninth example, a middle-aged person with blepharitis and no corneal staining but a reduced tear break-up time was given eye-drops containing 1.0% w/v tramadol.

[2] = tested on: eye; experiment: eighth example: tramadol eye-drops in dry eyes with unstable tear films, tear osmolarity and pain; assay type: in vivo, human; settings: for pain: dry eye
Text: In an eighth example, a person presented with dry eyes and unstable tear films, typical symptoms of “dry eye”. The patient's tear osmolarity improved, after use of an eye-drop containing 0.5% w/v tramadol in one eye, from 312 milliOsmoles before instillation of the eye drop to 299 milliOsmoles one hour after instillation.

[3] = tested on: eye; experiment: sixth example: tramadol eye-drops in a painful infection of the eye; assay type: in vivo, human
Text: In a sixth example, an infection of the subject's eye required treatment with antibiotics. However, the subject was unable to open the respective eyelid due to the consequent pain.

[4] = tested on: eye; experiment: eye-drop formulation with tramadol in the left eye of a healthy subject, sensation in the eye; assay type: in vivo, human; settings: 0.5% w/v tramadol eye-drop
Description: In a third example, a conventional ophthalmic eye-drop formulation was made up, but with the addition of 0.5% w/v tramadol. This formulation was administered to the left eye of a healthy subject. […] Sensation in the right eye remained normal.

[5] = tested on: eye; experiment: ciclosporin composition with added tramadol, post-operative treatment following a corneal transplant; assay type: in vivo; settings: addition of 0.5% w/v tramadol to the composition
Text: In a second example, a composition containing ciclosporin would normally be administered to the eye in post-operative treatment following a corneal transplant, to avoid transplant rejection. However, this would lead to significant additional levels of discomfort in the eye.

[6] = tested on: eye; experiment: seventh example: tramadol eye-drops in allergic eye disease; assay type: in vivo, human
Text: In a seventh example, a person presented with an allergic eye disease, resulting in significant prolonged itchiness.

[7] = tested on: eye; experiment: fourth example: patient suffering from dry-eye, tramadol eye-drops, artificial tears, or combination; assay type: in vivo, human; settings: topical
Text: In a fourth example, administration of the tramadol-containing eye-drop formulation of the third example to a patient suffering from “dry-eye” reduced the resultant discomfort as expected. […] However, the discomfort remained, which for many patients would lead to actions such as rubbing the affected eye, counteracting much of the improvement.

[8] = tested on: eye; experiment: pilocarpine drops for constriction of the pupil, with or without tramadol drops; assay type: in vivo
Description: In a first example, an eye was treated with pilocarpine drops to cause constriction of the pupil (in this particular example, as part of an ophthalmic diagnostic procedure, although pilocarpine is also be used therapeutically). Such drops can cause significant discomfort and excessive tear formation, possibly washing pilocarpine out of the eye before it could take effect. […] This implies that the tramadol may well be improving the absorption of other drugs.

[9] = tested on: undamaged eye; settings: topically applied to an undamaged eye; cited from earlier work
[10] = middle-aged person with blepharitis
[11] = eye-drop formulation comprising 0.5% w/v tramadol
[12] = tramadol 0.5% w/v where present
[13] = drops containing tramadol administered before or in conjunction with the pilocarpine drops

COc1cccc(C2(O)CCCCC2CN(C)C)c1 (centres unmarked) [tramadol]
blepharitis ([1]; middle-aged male): improved | irritable symptoms [1, 10]: improvement | tear break-up time [1, 10]: improved, and so did the tear break-up time | pain ([2]; eye-drop containing 0.5% w/v tramadol): reduced | pain ([2]; eye-drop containing 1.0% w/v tramadol): reduced the patient's pain further | tear osmolarity ([2]; one hour after instillation of eye-drop containing 0.5% w/v tramadol, 312 milliOsmoles before instillation, person with dry eye): 299 milliOsmoles | resolution of the infection ([3]; 0.5% w/v tramadol followed by antibiotics): more rapidly than would have been expected | discomfort [3, 11]: rapidly reduced | opening of the eyelid [3, 11]: permitting opening of the eyelid | vision in the treated eye [3, 11]: allowed reasonable vision | duration of numbing effect [4]: at least 110 minutes | side-effects [4]: No side-effects were noted | time to noticeably reduced sensation in the eye after instillation [4]: ≤ 3 min | effectiveness of the ciclosporin [5]: improve | discomfort in the eye from ciclosporin composition ([5]; post corneal transplant): significantly reduce | associated redness ([6]; allergic eye disease, eye-drop containing 0.5% w/v tramadol, versus saline drops alone): improved with time faster than for the conventional treatment with saline drops alone | itchiness ([6]; allergic eye disease, person, eye-drop containing 0.5% w/v tramadol): improved within a few minutes | results in allergic eye disease (itchiness, redness) ([6]; eye-drop containing 1.0% w/v tramadol, compared with 0.5% w/v): even more rapid and effective results | blinking ([7]; tramadol 0.5% w/v): reduction in blinking | discomfort / pain [7, 12]: reduced | dryness / lubrication of the eye [7, 12]: dryness remained | physical signs (symptoms and signs) [7, 12]: did not improve | discomfort caused by pilocarpine drops [8, 13]: greatly reduced | tear formation caused by pilocarpine drops [8, 13]: greatly reduced

CN1CC[C@]23c4c5ccc(O)c4O[C@H]2[C@@H](O)C=C[C@H]3[C@H]1C5 [morphine]
analgesic effect [9]: very little or no analgesic effect

CC[C@@H]1C(=O)OC[C@@H]1Cc1cncn1C [pilocarpine]
effectiveness in constriction of the pupil ([8]; 0.5% w/v pilocarpine administered promptly after or in conjunction with tramadol): as effective as 1% w/v pilocarpine administered without tramadol present
